Laboratory results: patent publication US8809355B2, “GABAA receptor modulators” (Innovationspatent Sverige AB, priority 2008, dated 2014)

How the values were obtained:
[1] = target: benzodiazepine receptor; experiment: Displacement of 3H-flumazenil in rat cortical tissue (receptor binding); conditions: for Ki: 3H-Flumazenil binding in vitro, rat cortical membranes, mean ± SD of three determinations
Protocol: Affinity of test substances for the benzodiazepine receptor was determined in vitro by displacement of ^3H-flumazenil in rat cortical tissue.

SMILES | Ki [1] | affinity for the BZD receptor (in words) ([1]; discussion of Table 1) | melting point | fold difference in potency among the ethylene linked compounds, thiophene over phenyl ([1]; ratio of Ki values, printed as 14a over 14b) | fold higher affinity of methylene linked thiophene compared to phenyl 16a ([1]; ratio of Ki values, vs 16a)
CCOC(=O)n1c(=S)[nH]c2ccc(C)cc2c1=O [Compound 3b, Ethyl 6-methyl-4-oxo-2-thioxo-1,4-dihydroquinazoline-3(2H)-carboxylate] | > 30000 nM | low affinity | 164 °C | – | –
Cc1ccc(-n2nc3c4cc(Br)ccc4[nH]c(=O)n3c2=O)cc1 [Compound 8a, 9-Bromo-2-(4-methylphenyl)-2,6-dihydro[1,2,4]triazolo[4,3-c]quinazoline-3,5-dione] | 0.24 ± 0.07 nM | – | 369 °C | – | –
O=c1[nH]c2ccc(Br)cc2c2nn(-c3ccccc3)c(=O)n12 [Compound 8b, 9-Bromo-2-phenyl-2,6-dihydro[1,2,4]triazolo[4,3-c]quinazoline-3,5-dione] | 0.47 ± 0.09 nM | – | 405 °C | – | –
O=c1[nH]c2ccc(Br)cc2c2nn(-c3ccc(Cl)cc3)c(=O)n12 [Compound 8c, 9-Bromo-2-(4-chlorophenyl)-2,6-dihydro[1,2,4]triazolo[4,3-c]quinazoline-3,5-dione] | 0.6 ± 0.26 nM | – | 387 °C (dec.) | – | –
O=c1[nH]c2ccc(Br)cc2c2nn(-c3ccccc3F)c(=O)n12 [Compound 8d, 9-Bromo-2-(2-fluorophenyl)-2,6-dihydro[1,2,4]triazolo[4,3-c]quinazoline-3,5-dione] | 0.2 ± 0.07 nM | – | 347 °C (dec.) | – | –
Cc1ccc2[nH]c(=O)n3c(=O)n(-c4ccccc4)nc3c2c1 [Compound 8e, 9-Methyl-2-phenyl-2,6-dihydro[1,2,4]triazolo[4,3-c]quinazoline-3,5-dione] | 0.62 ± 0.13 nM | – | 330 °C (dec.) | – | –
Cc1ccc(-n2nc3c4cc(C#Cc5ccccc5)ccc4[nH]c(=O)n3c2=O)cc1 [Compound 13a, 2-(4-Methylphenyl)-9-phenylethynyl-2,6-dihydro[1,2,4]triazolo[4,3-c]-quinazoline-3,5-dione] | 40 nM | – | > 300 °C (dec.) | – | –
Cc1ccc(-n2nc3c4cc(C#Cc5ccsc5)ccc4[nH]c(=O)n3c2=O)cc1 [Compound 13b, 2-(4-Methylphenyl)-9-(3-thienylethynyl)-2,6-dihydro[1,2,4]triazolo[4,3-c]-quinazoline-3,5-dione] | – | – | > 320 °C (dec.) | – | –
Cc1ccc(-n2nc3c4cc(C#Cc5ccccn5)ccc4[nH]c(=O)n3c2=O)cc1 [Compound 13c, 2-(4-Methylphenyl)-9-(pyridin-2-ylethynyl)-2,6-dihydro[1,2,4]triazolo[4,3-c]-quinazoline-3,5-dione] | – | – | 330 °C | – | –
Cc1ccc(-n2nc3c4cc(C#Cc5cccnc5)ccc4[nH]c(=O)n3c2=O)cc1 [Compound 13d, 2-(4-Methylphenyl)-9-(pyridin-3-ylethynyl)-2,6-dihydro[1,2,4]triazolo[4,3-c]-quinazoline-3,5-dione] | – | – | 339 °C | – | –
Cc1ccc(-n2nc3c4cc(C#Cc5ccncc5)ccc4[nH]c(=O)n3c2=O)cc1 [Compound 13e, 2-(4-Methylphenyl)-9-(pyridin-4-ylethynyl)-2,6-dihydro[1,2,4]triazolo[4,3-c]-quinazoline-3,5-dione] | – | – | 330 °C | – | –
Cc1ccc(-n2nc3c4cc(C#Cc5ccc(Oc6ccccc6)cc5)ccc4[nH]c(=O)n3c2=O)cc1 [Compound 13f, 2-(4-Methylphenyl)-9-[(4-phenoxyphenyl)ethynyl]-2,6-dihydro[1,2,4]triazolo[4,3-c]-quinazoline-3,5-dione] | – | – | 216 °C | – | –
Cc1ccc(-n2nc3c4cc(C#Cc5ccc(-c6ccccc6)cc5)ccc4[nH]c(=O)n3c2=O)cc1 [Compound 13g, 9-(Biphen-4-ylethynyl)-2-(4-methylphenyl)-2,6-dihydro[1,2,4]triazolo[4,3-c]-quinazoline-3,5-dione] | – | – | > 350 °C (dec.) | – | –
Cc1ccc(-n2nc3c4cc(C#Cc5cccc(O)c5)ccc4[nH]c(=O)n3c2=O)cc1 [Compound 13i, 9-(3-Hydroxyphenyl)ethynyl-2-(4-methylphenyl)-2,6-dihydro[1,2,4]triazolo[4,3-c]-quinazoline-3,5-dione] | – | – | 300 °C (dec.) | – | –
Cc1ccc(-n2nc3c4cc(/C=C/C(=O)OCc5ccccc5)ccc4[nH]c(=O)n3c2=O)cc1 [Compound 17, Benzyl (2E)-3-[2-(4-methylphenyl)-3,5-dioxo-2,6-dihydro[1,2,4]triazolo[4,3-c]quinazolin-9-yl]acrylate] | – | – | 242 °C | – | –
Cc1ccc(-n2nc3c4cc(CCC(=O)O)ccc4[nH]c(=O)n3c2=O)cc1 [Compound 18, 3-[2-(4-Methylphenyl)-3,5-dioxo-2,6-dihydro[1,2,4]triazolo[4,3-c]quinazolin-9-yl]propanoic acid] | 1.4 nM | – | 275 °C | – | –

Now from value to molecule:

Ki [1] | affinity for the BZD receptor (in words) ([1]; discussion of Table 1) | melting point | fold difference in potency among the ethylene linked compounds, thiophene over phenyl ([1]; ratio of Ki values, printed as 14a over 14b) | fold higher affinity of methylene linked thiophene compared to phenyl 16a ([1]; ratio of Ki values, vs 16a) | SMILES
4 ± 1.2 nM | – | 303 °C | 4 fold | – | Cc1ccc(-n2nc3c4cc(CCc5ccccc5)ccc4[nH]c(=O)n3c2=O)cc1 [Compound 14a, 2-(4-Methylphenyl)-9-(2-phenylethyl)-2,6-dihydro[1,2,4]triazolo[4,3-c]-quinazoline-3,5-dione]
0.94 ± 0.27 nM | – | 281 °C | – | – | Cc1ccc(-n2nc3c4cc(CCc5ccsc5)ccc4[nH]c(=O)n3c2=O)cc1 [Compound 14b, 2-(4-Methylphenyl)-9-[2-(3-thienyl)ethyl]-2,6-dihydro[1,2,4]triazolo[4,3-c]-quinazoline-3,5-dione]
0.53 ± 0.11 nM | – | > 300 °C (dec.) | – | – | Cc1ccc(-n2nc3c4cc(CCc5ccccn5)ccc4[nH]c(=O)n3c2=O)cc1 [Compound 14c, 2-(4-Methylphenyl)-9-[2-(2-pyridyl)ethyl]-2,6-dihydro[1,2,4]triazolo[4,3-c]-quinazoline-3,5-dione]
0.2 ± 0.04 nM | – | 292 °C | – | – | Cc1ccc(-n2nc3c4cc(CCc5cccnc5)ccc4[nH]c(=O)n3c2=O)cc1 [Compound 14d, 2-(4-Methylphenyl)-9-[2-(3-pyridyl)ethyl]-2,6-dihydro[1,2,4]triazolo[4,3-c]-quinazoline-3,5-dione]
0.17 ± 0.03 nM | – | 294 °C | – | – | Cc1ccc(-n2nc3c4cc(CCc5ccncc5)ccc4[nH]c(=O)n3c2=O)cc1 [Compound 14e, 2-(4-Methylphenyl)-9-[2-(4-pyridyl)ethyl]-2,6-dihydro[1,2,4]triazolo[4,3-c]-quinazoline-3,5-dione]
123 ± 12 nM | – | 213 °C | – | – | Cc1ccc(-n2nc3c4cc(CCc5ccc(Oc6ccccc6)cc5)ccc4[nH]c(=O)n3c2=O)cc1 [Compound 14f, 2-(4-Methylphenyl)-9-[2-(4-phenoxyphenyl)ethyl]-2,6-dihydro[1,2,4]triazolo[4,3-o]-quinazoline-3,5-dione]
1570 ± 150 nM | – | 345 °C | – | – | Cc1ccc(-n2nc3c4cc(CCc5ccc(-c6ccccc6)cc5)ccc4[nH]c(=O)n3c2=O)cc1 [Compound 14g]
6.2 nM | – | 300 °C (dec.) | – | – | Cc1ccc(-n2nc3c4cc(CCc5cccc(O)c5)ccc4[nH]c(=O)n3c2=O)cc1 [Compound 14i, 9-[2-(3-hydroxyphenyl)ethyl]-2-(4-Methylphenyl)-2,6-dihydro[1,2,4]triazolo[4,3-c]-quinazoline-3,5-dione]
~1 nM | – | 299 °C | – | – | Cc1ccc(-n2nc3c4cc(Cc5ccccc5)ccc4[nH]c(=O)n3c2=O)cc1 [Compound 16a, 9-Benzyl-2-(4-methylphenyl)-2,6-dihydro[1,2,4]triazolo[4,3-c]quinazoline-3,5-dione]
2.1 ± 0.3 nM | – | 324 °C | – | – | Cc1ccc(-n2nc3c4cc(Cc5cccc(F)c5)ccc4[nH]c(=O)n3c2=O)cc1 [Compound 16b, 9-(3-Fluorobenzyl)-2-(4-methylphenyl)-2,6-dihydro[1,2,4]triazolo[4,3-c]quinazoline-3,5-dione]
0.23 ± 0.18 nM | – | 287 °C | – | 5 fold | Cc1ccc(-n2nc3c4cc(Cc5ccsc5)ccc4[nH]c(=O)n3c2=O)cc1 [Compound 16c, 2-(4-Methylphenyl)-9-(3-thienylmethyl)-2,6-dihydro[1,2,4]triazolo[4,3-c]quinazoline-3,5-dione]
